# Assay: Human HepG2 cell viability assay in 384 well format
# Assay type: toxicity, cell-based
# Parameters: dose 125 nL, time 70.5 hour; cytotoxicity at 70.5 h: concentration not given beside the values
# Details: HepG2 cells, read-out: Inhibition
row,Structure (SMILES),cytotoxicity at 70.5 h
1,CCn1cnnc1CNC(=O)C1COc2ccc(Cl)cc2C1 (stereo unspecified),-3.41%
2,O=C(N[C@@H]1CCN(Cc2cc3ccccc3s2)C[C@H]1O)c1cccnc1,-3.4%
3,COC(=O)C1CCN(C(=O)c2ccc(N(C)S(C)(=O)=O)c(C)c2)CC1,-10.1%
4,Nc1nc(CNc2ncnc3c2CCN(Cc2ccoc2)CC3)cs1,29%
5,CCc1nc(CCNC(=O)Nc2ccc(C(=O)NC)cc2)cs1,-1.4%
6,CCn1nc2c(cc1=O)CN(Cc1nc(C)c3ccccc3n1)CC2,-6.18%
7,O=C1CC2(CCN(c3nncs3)C2)CN1c1ccc2c(c1)OCCO2 (stereo unspecified),-1.06%
8,COCCN1CCC(NCc2ccc(F)cc2F)C1 (stereo unspecified),5.5%
9,CNC(=O)CC1CC2(CCNCC2)c2cc(F)ccc21 (stereo unspecified),-3.61%
10,CC1CN(Cc2noc(C3CC3)n2)CCN1Cc1noc(C2CC2)n1 (stereo unspecified),-13.7%
11,Cc1nc2ccc(-n3ncnc3[C@@H]3CCCN3S(C)(=O)=O)cc2s1,12.3%
12,Cn1cccc1C(=O)N1CCCn2nc(CCC(=O)NC3CC3)cc2C1,9.42%
13,CN(C)CCC(Nc1nc(N)nc2c1CCNCC2)c1ccccc1 (stereo unspecified),-8.45%
14,CCOc1ccc(N2CCCN=C2NC(=O)c2cccc(OC)c2)cc1,2.56%
15,Cc1nccc(N2CCCC2CCNS(C)(=O)=O)n1 (stereo unspecified),-2.97%
16,Cc1cc(C)c2ncn(CCC(C)O)c(=O)c2c1 (stereo unspecified),-5.19%
17,Cc1cc(C)n(CC2CCCCN2C(=O)c2ccc(C(N)=O)cc2)n1 (stereo unspecified),-12%
18,c1ccc2c(c1)COC1(CCCCC1)N2,-4.51%
19,CC(C)N1CCC(Cc2cncc(-c3cccc(C(=O)O)c3)n2)CC1,10.8%
20,O=C(C1CC1)N1CCN(Cc2ccncc2)c2ncccc2C1,-10.1%
21,Cc1csc(-c2cccc(NC(=O)N3CCOCC3)c2)n1,-3.32%
22,CCc1nc(N)nc(NCCC(=O)NC2CCCCC2)c1C,-3.68%
23,Cc1cc(C)n(CC(=O)N2CCCCC2CCc2cccs2)c(=O)n1 (stereo unspecified),-13.4%
24,COc1ccc2c(C)nc(N3CCN([C@H]4CCCC[C@@H]4O)CC3)nc2c1,18.8%

row,Structure (SMILES),cytotoxicity at 70.5 h
1,CC(C)Cc1nc(CN2CC(=O)N(C)c3ccccc3C2=O)no1,2.18%
2,O=C(CC1NC(N2CCc3ccccc3C2)=NC1=O)Nc1ccccc1 (stereo unspecified),-5.52%
3,O=C(NCCNC1CCCCC1)c1cccs1,-6.1%
4,O=C(C1CCN(c2ccnc3ccc(Br)cc23)CC1)N1CCOCC1,8.35%
5,CCCc1cncnc1N1CCC(NCCc2ccc(O)cc2)CC1,-6.17%
6,c1ccc(-c2nnn3c2COC(CNCc2ccccn2)C3)cc1 (stereo unspecified),-5.4%
7,Cc1nn(C)c2ncc(S(=O)(=O)N3CCCN4CCCC4C3)cc12 (stereo unspecified),-2.09%
8,COc1ccccc1CC(C)CC(=O)O (stereo unspecified),-11.2%
9,CN(C)CC1(O)CCCN(Cc2ccccc2OCC(=O)N(C)C)C1 (stereo unspecified),2.4%
10,O=C(c1ccc2c(c1)COC2)N1CCCC(n2cncn2)C1 (stereo unspecified),-4.03%
11,c1cncc(N2CCCC3(CCN(CC4CCCO4)CC3)C2)c1 (stereo unspecified),-7.19%
12,NC(=O)c1ccc(-n2ccnc2C2CC2)cc1N1CCCC1,-3.29%
13,Cc1nonc1OCCNC(=O)CCCc1ccc(Cl)cc1,-5.01%
14,CC(C)CCCC1CN(C(=O)c2cnc[nH]2)CCO1 (stereo unspecified),-11.4%
15,CN(Cc1csc(-c2ccccc2)n1)C(=O)CCNS(C)(=O)=O,-8.29%
16,Cn1cc(CN2CCc3onc(C(=O)Nc4cccnc4)c3C2)cn1,-3.27%
17,O=C(Cc1ccccn1)N1CCC2(CC1)CN(c1ccccn1)CCO2,-6.92%
18,CCc1nc(CC(=O)N2CCCC2Cn2cccn2)cs1 (stereo unspecified),2.11%
19,CSCC(=O)N[C@H]1CC[C@H](Nc2nccc(-c3ccncc3)n2)C1,-0.057%
20,CCC(C)n1cnc(S(=O)(=O)N(C)C)c1 (stereo unspecified),14.5%
21,Fc1ccc(CC2CCN(Cc3cscn3)CC2)cc1,-14.2%
22,O=C1N(Cc2cccc(F)c2F)CCCC1(O)CNC1CCCC1 (stereo unspecified),-2.45%
23,N[C@@H](Cc1ccccc1)c1nnc(S(=O)(=O)Cc2ccccc2)o1,15.6%
24,O=C1CC(c2ccsc2)c2snc(C(=O)O)c2N1 (stereo unspecified),8.48%

row,Structure (SMILES),cytotoxicity at 70.5 h
1,CN1CCOC[C@H]1c1nc(-c2cccnc2)c[nH]1,-7.84%
2,CO[C@H]1CO[C@@]2(CCCN(C(=O)N(C)C)C2)C1,-3.18%
3,F[C@@H]1CN(CC2CC2)C[C@@H]1OCc1nc2ncccc2[nH]1,-3.03%
4,CCc1nccn1-c1cncc(C2CCCN2CC(=O)N2CCCC2)n1 (stereo unspecified),-3.79%
5,CCc1n[nH]c(C2CN(C(=O)c3ccc4c(c3)CCCC4)CCO2)n1 (stereo unspecified),-8.34%
6,O=C(C1CC=CC1)N1CCc2c(COCc3ccncc3)cncc2C1,-10.9%
7,Cc1noc(C)c1CN1CCC2(COCc3cnc(N(C)C)nc32)C1 (stereo unspecified),-3.18%
8,O=C(CCC1CCCO1)NCc1ccnc(-n2cccn2)c1 (stereo unspecified),23.5%
9,Cc1cc(C)n(-c2ccc(C(=O)NCC(CO)Cc3ccco3)cc2)n1 (stereo unspecified),-7.33%
10,Cn1cc(C[C@H]2[C@H](N3CCOCC3)CCN2c2ncc(F)cn2)cn1,3.47%
11,C=C(C)CNC(=O)C1CCCN(C2CCN(C(C)C)CC2)C1 (stereo unspecified),-2.47%
12,Cc1cc(F)c2c(c1)CCCN2Cc1nc2c(cnn2C)c(=O)[nH]1,-28.1%
13,Cc1cnccc1N1CCCN(C(=O)CCn2ccnc2C)CC1,-3.98%
14,O=C([C@@H]1C[C@@H]2CCN(Cc3ccco3)C[C@H]2O1)N1CCCO1,-0.42%
15,N#Cc1ccccc1OCCN1CCCC1Cn1cncn1 (stereo unspecified),3.66%
16,NCC1[C@H]2CN(Cc3ccccc3F)C[C@@H]12 (stereo partly specified),-6.6%
17,Cc1noc(C)c1CN1C(=O)[C@H]2CC[C@@H]1CN(C(=O)c1cscn1)C2,-2.09%
18,Cc1cc(C)n(CC2CN(CCOc3ccccc3C#N)CCO2)n1 (stereo unspecified),-5.02%
19,N#Cc1cccc(CN2CCC3(CC2)CC(c2ccncc2)C(=O)N3)c1 (stereo unspecified),-0.0024%
20,COCCN1C[C@H]2CN(Cc3cccc(OC)c3)CCN2C1=O,-7.25%
21,COCC(=O)NCCSCCOc1cccc(Br)c1,32%
22,N#Cc1ccccc1CN1CCC(CN2CCOCC2)C1 (stereo unspecified),-5.31%
23,N#Cc1ccc(S(=O)(=O)NC(=O)c2ccc3c(c2)COC3)cc1,-4.81%
24,CN(C)C(C(=O)N1CCC(N2CCSCC2)CC1)c1ccccc1F (stereo unspecified),-3.23%

row,Structure (SMILES),cytotoxicity at 70.5 h
1,CC(=O)c1cc(CN2CCCCC2c2nc3cc(F)ccc3[nH]2)cs1 (stereo unspecified),-5.07%
2,O=C(c1ccncc1)N1CCCn2nnc(Cn3cccn3)c2C1,-8.56%
3,CNc1nc(N2CCC3(CCCNC3=O)C2)nc2c1CCC2 (stereo unspecified),-6.8%
4,CN(Cc1ccsc1)C(=O)CN1CCc2c(ncn2C)C1,17.8%
5,O=C(CN1CCCC1CCCO)NCc1ccccn1 (stereo unspecified),1.57%
6,OC(COc1ccccc1)CN1CCC(c2ccn[nH]2)CC1 (stereo unspecified),-13.1%
7,Cn1ccc(CN2CCCN(c3nccs3)CC2)cc1=O,-1.81%
8,CSCC[C@@H](CO)n1ccnc1-c1nccn1C,-5.66%
9,CO[C@@H]1CCN(c2ncc(F)cn2)[C@H]1Cc1cnn(C)c1,-11.6%
10,COCCn1c2c(ccc1=O)CCN(C(=O)Cc1ccsc1)CC2,2.04%
11,CCCN1Cc2nc(N3CCCC3)ncc2C1=O,-5.27%
12,CNS(=O)(=O)c1ccccc1N1CCN(C(C)C(=O)OC)CC1 (stereo unspecified),-3.28%
13,CCN(Cc1noc(CC(C)C)n1)Cc1cccc(F)c1O,12.8%
14,O=c1[nH]nc(CCCN2CCOCC2)n1-c1ccc(F)cc1F,24.5%
15,COc1nccnc1N1CCN(Cc2cccc(F)c2)C(=O)C1,16.1%
16,COc1cc(N2CC[C@@H]3O[C@H](C(=O)NCC4CC4)C[C@@H]32)ncn1,16.5%
17,Cc1cc(C(F)(F)F)nc(C2CCCN2S(C)(=O)=O)n1 (stereo unspecified),1.14%
18,Cc1nc(CNC(=O)N(CCCO)C2CCc3ccccc32)oc1C (stereo unspecified),-1.03%
19,Cn1cc(CNC(=O)c2cc3c(s2)CCCCC3)cn1,-3.43%
20,Cc1ccc(-c2nc(C3CCN(C(=O)c4ccnn4C)CC3)no2)cn1,-7.4%
21,CC(=O)NCc1nc(CCOc2ccc(Cl)cc2)no1,-4.84%
22,COCc1nc(CNC2CCSCC2)no1,-8.13%
23,CCCc1n[nH]c(C2CN(C(=O)c3ccc[nH]3)CCO2)n1 (stereo unspecified),-3.89%
24,CN1CCC(c2cccc(Cc3ccccc3)n2)CC1,3.18%

row,Structure (SMILES),cytotoxicity at 70.5 h
1,CC1(C)COCCN1C(=O)CCc1nc(-c2ccccn2)no1,-18.1%
2,COc1cc(C(=O)NS(=O)(=O)c2cccc(C#N)c2)cc(Cl)c1OC,-8.04%
3,CCC1(CO)CCCN(C(=O)c2cc(COc3cccc(F)c3)[nH]n2)C1 (stereo unspecified),-3.53%
4,CC(C)N1CCC2(CC1)CC(NS(C)(=O)=O)c1ccccc1O2 (stereo unspecified),4.16%
5,NC(=O)Nc1cccc(Oc2ccccn2)c1,-4.42%
6,CCOCc1nc2c(c(N3CC=CC3)n1)CCN(C1CCOCC1)CC2,0.826%
7,CCOC(=O)[C@]12CCCN(Cc3cccs3)C[C@H]1CN(C(C)C)C2,1.55%
8,c1ccc(COCCN2CCc3[nH]cnc3C2c2ccco2)cc1 (stereo unspecified),-4.41%
9,Cc1ccc(N2Cc3c(CN(C)C)nn(C)c3C2)nn1,-14.2%
10,CC1CN(CC(=O)Nc2nccs2)CCN1Cc1nccn1C (stereo unspecified),-6.31%
11,Cc1ncsc1C(=O)NCCN1CCCCCC1=O,-12.3%
12,COC(=O)CCCn1ccnc1C(C)c1ccccc1 (stereo unspecified),-1.4%
13,CN(Cc1ccc(Cl)s1)C1CCCN(c2cccnn2)C1 (stereo unspecified),-11.8%
14,CCN1CCCC1CNCc1cc2cc(OC)ccc2[nH]c1=O (stereo unspecified),-0.0295%
15,O=S(=O)(NCCCn1cncn1)c1ccc2c(c1)OCCCO2,-6.28%
16,Cn1cc(C2CCCN2C(=O)CCn2ccc3ccccc32)cn1 (stereo unspecified),3.44%
17,CC(O)CN1CCC(CNCc2cccc(C(F)(F)F)c2)CC1 (stereo unspecified),2.27%
18,O=C(NCCN1CCOCC1)c1cnc(Cc2ccc(F)cc2)s1,-8.24%
19,Cc1ccc(NC2CCN(C(=O)c3cccc4[nH]ncc34)CC2)nn1,-4.9%
20,CS(=O)(=O)N1CCO[C@@H]2CN(C(=O)Cc3cccs3)CC[C@@H]2C1,-9.17%
